The values below are quoted from earlier work in patent US20200368246A1, “COMBINATION THERAPY TARGETING CANCER ASSOCIATED WITH THE HEDGEHOG PATHWAY” (priority 2017, published 2020).

For data set [1] the following is noted: for patients who experience treatment-emergent adverse events: monotherapy at recommended dose; for patients who experienced adverse side effects: muscle spasms, alopecia, taste loss, weight loss, fatigue.
The subject of data set [2] is basal cell carcinoma. The settings on record: patient.
For data set [3], the system named is advanced and metastatic basal cell carcinoma. The conditions noted are these: monotherapy.
For data set [4] the following is noted: nineteen patients; grade 2 fatigue and grade 4 congestive heart failure.
Setting [5] is: metastatic basal cell carcinoma.

Like-named read-outs stand apart in the source and are kept apart here.

For `CS(=O)(=O)c1ccc(C(=O)Nc2ccc(Cl)c(-c3ccccn3)c2)c(Cl)c1` [Erivedge®, vismodegib], the “patients who experience treatment-emergent adverse events” value in data set [1] was “Ninety-five to one hundred percent”. In addition, in data set [1] (monotherapy trial), the “patients with severe grade 3 or 4 adverse reactions” value is reported as 25% and the “patients who experienced adverse side effects” value is on record as 33%. In addition, the tumor shrinkage in data set [2] (clinical trial, within the first several months) is on record as 70%. The “tumor outcome on second course” value in data set [2] (placed back on the drug after radiation) was “the tumor developed resistance to the drug”. In addition, in data set [3], the “mean time for secondary resistance” value was “about 52 weeks” and the “treated patients with secondary resistance” value is on record as 21%. The response rate in data set [3] (advanced basal cell carcinoma) was 43%. The response rate in data set [3] (setting [5]) is on record as 30%.

In the case of `Cc1c(C(=O)Nc2ccc(N3C[C@@H](C)O[C@@H](C)C3)nc2)cccc1-c1ccc(OC(F)(F)F)cc1` [Odomzo®, sonidegib], the “patients who experience treatment-emergent adverse events” value in data set [1] is reported as “Ninety-five to one hundred percent”. Besides, in data set [1] (monotherapy trial), the “patients who had to discontinue treatment due to toxic effects” value was 22% and the “patients who experienced adverse side effects” value was 32%. In data set [3], the “mean time for secondary resistance” value is recorded as “about 52 weeks” and the “treated patients with secondary resistance” value is 21%. Also, in data set [3] (advanced basal cell carcinoma), the response rate is given as 47%. Moreover, in data set [3] (setting [5]), the response rate is recorded as 17.4%.

Turning to `CCC(C)n1ncn(-c2ccc(N3CCN(c4ccc(OCC5COC(Cn6cncn6)(c6ccc(Cl)cc6Cl)O5)cc4)CC3)cc2)c1=O` (stereo not drawn) [itraconazole], the “adverse events associated with treatment” value in data set [4] was “two adverse events”.

Take pembrolizumab [Keytruda]: the effectiveness result in data set [2] (3 cycles) is recorded as “failed to show effectiveness”.
